Source: ChEMBL document CHEMBL3868618, “Synthesis and biological evaluation of chalcone derivatives containing aminoguanidine or acylhydrazone moieties” (Bioorg Med Chem Lett, 2016)
Converted amounts (≈) assume the structure as drawn.

Assays:
Streptococcus mutans = experiment: Antibacterial activity against Streptococcus mutans 3065 measured after 24 hrs by two-fold serial dilution method; assay type: functional; conditions: Streptococcus mutans, 3065, 24 h
Staphylococcus aureus [1] = experiment: Antibacterial activity against quinolone-resistant Staphylococcus aureus 3519 measured after 24 hrs by two-fold serial dilution method; assay type: functional; conditions: Staphylococcus aureus, 3519, 24 h
Candida albicans [2] = experiment: Antifungal activity against Candida albicans 7535 measured after 24 hrs by two-fold serial dilution method; assay type: functional; conditions: Candida albicans, 7535, 24 h
Staphylococcus aureus [3] = experiment: Antibacterial activity against methicillin-resistant Staphylococcus aureus 3506 measured after 24 hrs by two-fold serial dilution method; assay type: functional; conditions: Staphylococcus aureus, 3506, 24 h
Salmonella typhimurium [4] = experiment: Potency index, ratio of gatifloxacin MIC to compound MIC against Salmonella typhimurium 1926; assay type: functional, Salmonella enterica subsp. enterica serovar Typhimurium
Staphylococcus aureus [5] = experiment: Antibacterial activity against Staphylococcus aureus 4220 measured after 24 hrs by two-fold serial dilution method; assay type: functional; conditions: Staphylococcus aureus, 4220, 24 h
Staphylococcus aureus [6] = experiment: Antibacterial activity against quinolone-resistant Staphylococcus aureus 3505 measured after 24 hrs by two-fold serial dilution method; assay type: functional; conditions: Staphylococcus aureus, 3505, 24 h
Staphylococcus aureus [7] = experiment: Antibacterial activity against Staphylococcus aureus 503 measured after 24 hrs by two-fold serial dilution method; assay type: functional; conditions: Staphylococcus aureus, 503, 24 h
Escherichia coli [8] = experiment: Antibacterial activity against Escherichia coli 1924 measured after 24 hrs by two-fold serial dilution method; assay type: functional; conditions: Escherichia coli, 1924, 24 h
Candida albicans [9] = experiment: Potency index, ratio of fluconazole MIC to compound MIC against Candida albicans 7535; assay type: functional
Salmonella typhimurium [10] = experiment: Potency index, ratio of moxifloxin MIC to compound MIC against Salmonella typhimurium 1926; assay type: functional, Salmonella enterica subsp. enterica serovar Typhimurium
Mus musculus [11] = experiment: Antiinflammatory activity in mouse assessed as inhibition of xylene-induced ear edema at 100 mg/kg, ip administered 30 mins before xylene challenge measured after 30 mins relative to DMSO-control; assay type: functional
Escherichia coli [12] = experiment: Antibacterial activity against Escherichia coli 1356 measured after 24 hrs by two-fold serial dilution method; assay type: functional; conditions: Escherichia coli, 1356, 24 h
Staphylococcus aureus [13] = experiment: Antibacterial activity against Staphylococcus aureus 209 measured after 24 hrs by two-fold serial dilution method; assay type: functional; conditions: Staphylococcus aureus, 209, 24 h
Salmonella typhimurium [14] = experiment: Antibacterial activity against Salmonella typhimurium 1926 measured after 24 hrs by two-fold serial dilution method; assay type: functional, Salmonella enterica subsp. enterica serovar Typhimurium; conditions: Salmonella enterica, 1926, 24 h
Pseudomonas aeruginosa = experiment: Antibacterial activity against Pseudomonas aeruginosa 2742 measured after 24 hrs by two-fold serial dilution method; assay type: functional; conditions: Pseudomonas aeruginosa, 2742, 24 h
Staphylococcus aureus [15] = experiment: Antibacterial activity against methicillin-resistant Staphylococcus aureus 3167 measured after 24 hrs by two-fold serial dilution method; assay type: functional; conditions: Staphylococcus aureus, 3167, 24 h
Mus musculus [16] = experiment: Antiinflammatory activity in mouse assessed as inhibition of xylene-induced ear edema at 100 mg/kg, po administered 4 hrs before xylene challenge measured after 3 hrs; assay type: functional
Mus musculus [17] = experiment: Antiinflammatory activity in mouse assessed as inhibition of xylene-induced ear edema at 100 mg/kg, po administered 3 hrs before xylene challenge measured after 3 hrs; assay type: functional
Mus musculus [18] = experiment: Antiinflammatory activity in mouse assessed as inhibition of xylene-induced ear edema at 100 mg/kg, po administered 24 hrs before xylene challenge measured after 3 hrs; assay type: functional
Mus musculus [19] = experiment: Antiinflammatory activity in mouse assessed as inhibition of xylene-induced ear edema at 50 mg/kg, po administered 2 hrs before xylene challenge measured after 3 hrs; assay type: functional
Mus musculus [20] = experiment: Antiinflammatory activity in mouse assessed as inhibition of xylene-induced ear edema at 25 mg/kg, po administered 2 hrs before xylene challenge measured after 3 hrs; assay type: functional
Mus musculus [21] = experiment: Antiinflammatory activity in mouse assessed as inhibition of xylene-induced ear edema at 100 mg/kg, po administered 5 hrs before xylene challenge measured after 3 hrs; assay type: functional
Mus musculus [22] = experiment: Antiinflammatory activity in mouse assessed as inhibition of xylene-induced ear edema at 100 mg/kg, po administered 2 hrs before xylene challenge measured after 3 hrs; assay type: functional
Mus musculus [23] = experiment: Antiinflammatory activity in mouse assessed as inhibition of xylene-induced ear edema at 100 mg/kg, po administered 1 hr before xylene challenge measured after 3 hrs; assay type: functional
[24] = Cytotoxicity against human HeLa cells assessed as reduction in cell viability measured after 24 hrs by MTT assay; assay type: toxicity, cell-based
[25] = Cytotoxicity against human L02 cells assessed as reduction in cell viability measured after 24 hrs by MTT assay; assay type: toxicity, cell-based
[26] = Cytotoxicity against human Hep3B cells assessed as reduction in cell viability measured after 24 hrs by MTT assay; assay type: toxicity, cell-based, Hep 3B2

Structure (SMILES)	MIC (Streptococcus mutans) [µg/mL]	MIC (Staphylococcus aureus [1]) [µg/mL]	MIC (Candida albicans [2]) [µg/mL]	MIC (Staphylococcus aureus [3]) [µg/mL]	MIC (Staphylococcus aureus [5]) [µg/mL]	MIC (Staphylococcus aureus [6]) [µg/mL]	MIC (Staphylococcus aureus [7]) [µg/mL]	MIC (Escherichia coli [8]) [µg/mL]	inhibition in vivo at 100 mg/kg (Mus musculus [11]) [%]	MIC (Escherichia coli [12]) [µg/mL]	MIC (Staphylococcus aureus [13]) [µg/mL]	MIC (Salmonella typhimurium [14]) [µg/mL]	MIC (Pseudomonas aeruginosa) [µg/mL]	MIC (Staphylococcus aureus [15]) [µg/mL]	further results
N=C(N)N/N=C/c1ccc(/C=C/C(=O)c2cccc(Br)c2)cc1	2 (≈ 5.39 µM)	4 (≈ 10.8 µM)	2 (≈ 5.39 µM)	2 (≈ 5.39 µM)	2 (≈ 5.39 µM)	2 (≈ 5.39 µM)	2 (≈ 5.39 µM)	2 (≈ 5.39 µM)	49.7	8 (≈ 21.5 µM)	2 (≈ 5.39 µM)	1 (≈ 2.69 µM)	2 (≈ 5.39 µM)	2 (≈ 5.39 µM)	Ratio (Salmonella typhimurium [4]): 1 - 2; Ratio (Candida albicans [9]): 2; Ratio (Salmonella typhimurium [10]): 1
N=C(N)N/N=C/c1ccc(/C=C/C(=O)c2ccccc2Br)cc1	8 (≈ 21.5 µM)	16 (≈ 43.1 µM)	8 (≈ 21.5 µM)	8 (≈ 21.5 µM)	4 (≈ 10.8 µM)	8 (≈ 21.5 µM)	8 (≈ 21.5 µM)	8 (≈ 21.5 µM)	78.3	16 (≈ 43.1 µM)	8 (≈ 21.5 µM)	4 (≈ 10.8 µM)	8 (≈ 21.5 µM)	8 (≈ 21.5 µM)	–
COc1ccc2c(c1)c(CC(=O)O)c(C)n2C(=O)c1ccc(Cl)cc1 [INDOMETHACIN]	–	–	–	–	–	–	–	–	89.4	–	–	–	–	–	inhibition in vivo at 100 mg/kg (Mus musculus [16]): 15.6%; inhibition in vivo at 100 mg/kg (Mus musculus [17]): 18.6%; inhibition in vivo at 100 mg/kg (Mus musculus [18]): 5.01%; inhibition in vivo at 50 mg/kg (Mus musculus [19]): 22.8%; inhibition in vivo at 25 mg/kg (Mus musculus [20]): 4.85%; inhibition in vivo at 100 mg/kg (Mus musculus [21]): 10.3%; inhibition in vivo at 100 mg/kg (Mus musculus [22]): 30.9 to 33.3%; inhibition in vivo at 100 mg/kg (Mus musculus [23]): 12%
N=C(N)N/N=C/c1ccc(/C=C/C(=O)c2ccc(Cl)cc2Cl)cc1	2 (≈ 5.54 µM)	16 (≈ 44.3 µM)	1 (≈ 2.77 µM)	8 (≈ 22.1 µM)	2 (≈ 5.54 µM)	8 (≈ 22.1 µM)	2 (≈ 5.54 µM)	2 (≈ 5.54 µM)	92.5	8 (≈ 22.1 µM)	2 (≈ 5.54 µM)	1 (≈ 2.77 µM)	2 (≈ 5.54 µM)	8 (≈ 22.1 µM)	IC50 at 24 h [24]: 8.7 µg/mL (≈ 24.1 µM); inhibition in vivo at 100 mg/kg (Mus musculus [16]): 16.9%; inhibition in vivo at 100 mg/kg (Mus musculus [17]): 26.4%; inhibition in vivo at 100 mg/kg (Mus musculus [18]): 5.52%; Ratio (Salmonella typhimurium [4]): 1 - 2; IC50 at 24 h [25]: 18.1 µg/mL (≈ 50.1 µM); Ratio (Candida albicans [9]): 2; IC50 at 24 h [26]: 15.3 µg/mL (≈ 42.4 µM); inhibition in vivo at 50 mg/kg (Mus musculus [19]): 33.7%; Ratio (Salmonella typhimurium [10]): 1; inhibition in vivo at 25 mg/kg (Mus musculus [20]): 17.6%; inhibition in vivo at 100 mg/kg (Mus musculus [21]): 11.3%; inhibition in vivo at 100 mg/kg (Mus musculus [22]): 34.2 to 43.5%; inhibition in vivo at 100 mg/kg (Mus musculus [23]): 20.7%
O=C(N/N=C/c1ccc(/C=C/C(=O)c2ccccc2F)cc1)c1ccncc1	16 (≈ 42.9 µM)	64 (≈ 171 µM)	> 64	64 (≈ 171 µM)	64 (≈ 171 µM)	64 (≈ 171 µM)	64 (≈ 171 µM)	64 (≈ 171 µM)	51.2	64 (≈ 171 µM)	64 (≈ 171 µM)	> 64	> 64	64 (≈ 171 µM)	–
N=C(N)N/N=C/c1ccc(/C=C/C(=O)c2ccc(Br)cc2)cc1	4 (≈ 10.8 µM)	16 (≈ 43.1 µM)	2 (≈ 5.39 µM)	2 (≈ 5.39 µM)	2 (≈ 5.39 µM)	4 (≈ 10.8 µM)	4 (≈ 10.8 µM)	2 (≈ 5.39 µM)	68.9	32 (≈ 86.2 µM)	4 (≈ 10.8 µM)	2 (≈ 5.39 µM)	2 (≈ 5.39 µM)	8 (≈ 21.5 µM)	–
O=C(/C=C/c1ccc(/C=N/NC(=O)c2ccncc2)cc1)c1ccc(F)cc1	64 (≈ 171 µM)	32 (≈ 85.7 µM)	> 64	32 (≈ 85.7 µM)	32 (≈ 85.7 µM)	32 (≈ 85.7 µM)	64 (≈ 171 µM)	64 (≈ 171 µM)	51.1	64 (≈ 171 µM)	32 (≈ 85.7 µM)	> 64	> 64	32 (≈ 85.7 µM)	–
N=C(N)N/N=C/c1ccc(/C=C/C(=O)c2cccc(Cl)c2)cc1	4 (≈ 12.2 µM)	8 (≈ 24.5 µM)	4 (≈ 12.2 µM)	2 (≈ 6.12 µM)	4 (≈ 12.2 µM)	4 (≈ 12.2 µM)	4 (≈ 12.2 µM)	4 (≈ 12.2 µM)	80.7	8 (≈ 24.5 µM)	4 (≈ 12.2 µM)	2 (≈ 6.12 µM)	4 (≈ 12.2 µM)	4 (≈ 12.2 µM)	–
Cc1ccc(C(=O)/C=C/c2ccc(/C=N/NC(=N)N)cc2)cc1	8 (≈ 26.1 µM)	4 (≈ 13.1 µM)	2 (≈ 6.53 µM)	2 (≈ 6.53 µM)	4 (≈ 13.1 µM)	4 (≈ 13.1 µM)	4 (≈ 13.1 µM)	4 (≈ 13.1 µM)	77.7	8 (≈ 26.1 µM)	4 (≈ 13.1 µM)	4 (≈ 13.1 µM)	2 (≈ 6.53 µM)	8 (≈ 26.1 µM)	–
